The conditions of the data set: 101.33 kPa, Liquid; for viscosity: Capillary tube (Ostwald / Ubbelohde) method; for mass density: Pycnometric method.

Where a name gives a salt, the structure may show the parent alone. ± gives the expanded uncertainty stated by the source.

Consider `CCOC(=O)CC(O)(CC(=O)OCC)C(=O)OCC` [triethyl citrate], for which the viscosity (as a rule, the resistance of a fluid to flow) (293.15 K) is on record as 44.12 ± 4.4 mPa·s; the viscosity (298.15 K) was determined as 32.1 ± 3.2 mPa·s; the viscosity (303.15 K) was 20.79 ± 2.1 mPa·s; the viscosity (308.15 K) is reported as 16.55 ± 1.7 mPa·s; the viscosity (313.15 K) was 13.18 ± 1.3 mPa·s; the viscosity (318.15 K) is recorded as 10.24 ± 1 mPa·s. The viscosity runs as follows: (323.15 K) 8.62 ± 0.87 mPa·s; (328.15 K) 7.23 ± 0.73 mPa·s; (333.15 K) 6.41 ± 0.65 mPa·s; (338.15 K) 5.71 ± 0.57 mPa·s. Also, the mass density (usually the mass of a sample divided by its volume) is reported as 1138.4 ± 4.7 kg/m3 (293.15 K); 1134.5 ± 4.7 kg/m3 (298.15 K); 1131.1 ± 4.7 kg/m3 (303.15 K); 1126.2 ± 4.7 kg/m3 (308.15 K); 1122.4 ± 4.7 kg/m3 (313.15 K); 1116.5 ± 4.6 kg/m3 (318.15 K). Moreover, the mass density by setting is: (323.15 K) 1112.1 ± 4.6 kg/m3; (328.15 K) 1106.6 ± 4.6 kg/m3; (333.15 K) 1102.8 ± 4.6 kg/m3; (338.15 K) 1097.3 ± 4.6 kg/m3.
Turning to `CC(=O)OCC(COC(C)=O)OC(C)=O` [glyceryl triethanoate], the viscosity reads like this: (293.15 K) 21.48 ± 2.2 mPa·s; (298.15 K) 16.36 ± 1.6 mPa·s; (303.15 K) 12.5 ± 1.3 mPa·s; (308.15 K) 9.95 ± 1 mPa·s; (313.15 K) 8.21 ± 0.82 mPa·s; (318.15 K) 6.75 ± 0.68 mPa·s. In addition, the viscosity runs as follows: (323.15 K) 5.66 ± 0.57 mPa·s; (328.15 K) 4.82 ± 0.48 mPa·s; (333.15 K) 4.18 ± 0.42 mPa·s; (338.15 K) 3.67 ± 0.37 mPa·s. Besides, the mass density reads like this: (293.15 K) 1158.3 ± 4.7 kg/m3; (298.15 K) 1152.9 ± 4.7 kg/m3; (303.15 K) 1147.4 ± 4.7 kg/m3; (308.15 K) 1142 ± 4.6 kg/m3; (313.15 K) 1136.6 ± 4.6 kg/m3; (318.15 K) 1131.1 ± 4.6 kg/m3. The mass density is on record as 1125.7 ± 4.6 kg/m3 (323.15 K), 1120.2 ± 4.6 kg/m3 (328.15 K), 1114.8 ± 4.5 kg/m3 (333.15 K) and 1109.4 ± 4.5 kg/m3 (338.15 K).
On to `CCOC(=O)CC(CC(=O)OCC)(OC(C)=O)C(=O)OCC` [triethyl acetyl citrate], for which the mass density by setting is: (293.15 K) 1142.1 ± 5.2 kg/m3; (298.15 K) 1137.5 ± 5.2 kg/m3; (303.15 K) 1133.1 ± 5.2 kg/m3; (308.15 K) 1127.6 ± 5.1 kg/m3; (313.15 K) 1124.1 ± 5.1 kg/m3; (318.15 K) 1118.5 ± 5.1 kg/m3. The mass density by setting is: (323.15 K) 1115.1 ± 5.1 kg/m3; (328.15 K) 1110.1 ± 5.1 kg/m3; (333.15 K) 1105.4 ± 5 kg/m3; (338.15 K) 1100.5 ± 5 kg/m3. The viscosity by setting is: (298.15 K) 46.55 ± 4.7 mPa·s; (303.15 K) 34.56 ± 3.5 mPa·s; (308.15 K) 25.1 ± 2.6 mPa·s; (313.15 K) 17.52 ± 1.8 mPa·s; (318.15 K) 13.81 ± 1.4 mPa·s; (323.15 K) 10.95 ± 1.1 mPa·s. Besides, the viscosity (328.15 K) was 8.86 ± 0.9 mPa·s, the viscosity (333.15 K) is reported as 7.98 ± 0.81 mPa·s and the viscosity (338.15 K) turned out to be 7.02 ± 0.71 mPa·s.
Turning to `CCCCOC(=O)C(C)O` (centres undefined) [butyl 2-hydroxypropanoate], the viscosity (293.15 K) is given as 3.87 ± 0.39 mPa·s; the viscosity (298.15 K) came out at 3.26 ± 0.33 mPa·s; the viscosity (303.15 K) was 2.81 ± 0.28 mPa·s; the viscosity (308.15 K) is listed as 2.42 ± 0.24 mPa·s; the viscosity (313.15 K) came to 2.15 ± 0.22 mPa·s; the viscosity (318.15 K) was 1.9 ± 0.19 mPa·s. Besides, the viscosity is 1.69 ± 0.17 mPa·s (323.15 K), 1.55 ± 0.16 mPa·s (328.15 K), 1.43 ± 0.14 mPa·s (333.15 K) and 1.3 ± 0.13 mPa·s (338.15 K). For the same compound, the mass density (293.15 K) came out at 981.5 ± 4 kg/m3; the mass density (298.15 K) amounted to 977 ± 4 kg/m3; the mass density (303.15 K) is 973.1 ± 4 kg/m3; the mass density (308.15 K) was determined as 968.4 ± 4 kg/m3; the mass density (313.15 K) was 963.5 ± 4 kg/m3; the mass density (318.15 K) was found to be 958.5 ± 3.9 kg/m3. The mass density is, setting by setting: (323.15 K) 953.9 ± 3.9 kg/m3; (328.15 K) 948.9 ± 3.9 kg/m3; (333.15 K) 944.1 ± 3.9 kg/m3; (338.15 K) 940.1 ± 3.9 kg/m3.

(Values after the NIST ThermoML archive (doi:10.1016/j.jct.2017.12.021).)
